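Method: 48-hour compound exposure of cells in 96-well plates, five concentrations, linear interpolation of endpoints. GI50: concentration for 50% inhibition of growth.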 The source made the active and inactive calls. No stated cut-off is given here; in the data, active = GI50 up to about 1.1 µM and inactive = higher.
Legend:
Experiment in all cases: NCI anticancer screen, dose series, 48 h
786-0 = test system: 786-0
A498 = test system: A498
A549 = test system: A549
ACHN = test system: ACHN
BT-549 = test system: BT-549
CAKI-1 = test system: CAKI-1
CCRF-CEM = test system: CCRF-CEM
DU-145 = test system: DU-145
EKVX = test system: EKVX
HCC 2998 = test system: HCC 2998
HCT-116 = test system: HCT-116
HCT-15 = test system: HCT-15
HL-60 = test system: HL-60
HOP-62 = test system: HOP-62
HOP-92 = test system: HOP-92
HT-29 = test system: HT-29
Hs-578T = test system: Hs-578T
IGROV-1 = test system: IGROV-1
K562 = test system: K562
LOX IMVI = test system: LOX IMVI
M14 = test system: M14
MCF7 = test system: MCF7
MDA-MB-231 = test system: MDA-MB-231
MDA-MB-435 = test system: MDA-MB-435
MDA-N = test system: MDA-N
MOLT-4 = test system: MOLT-4
Malme-3M = test system: Malme-3M
NCI-H226 = test system: NCI-H226
NCI-H23 = test system: NCI-H23
NCI-H460 = test system: NCI-H460
NCI-H522 = test system: NCI-H522
NCI/ADR-RES = test system: NCI/ADR-RES
OVCAR-3 = test system: OVCAR-3
OVCAR-4 = test system: OVCAR-4
OVCAR-5 = test system: OVCAR-5
OVCAR-8 = test system: OVCAR-8
PC-3 = test system: PC-3
RPMI-8226 = test system: RPMI-8226
RXF 393 = test system: RXF 393
SF-268 = test system: SF-268
SF-539 = test system: SF-539
SK-MEL-28 = test system: SK-MEL-28
SK-MEL-5 = test system: SK-MEL-5
SK-OV-3 = test system: SK-OV-3
SN12C = test system: SN12C
SNB-19 = test system: SNB-19
SNB-75 = test system: SNB-75
SR = test system: SR
SW-620 = test system: SW-620
T47D = test system: T47D
TK-10 = test system: TK-10
U-251 = test system: U-251
UACC-257 = test system: UACC-257
UACC-62 = test system: UACC-62
UO-31 = test system: UO-31
COLO 205 = test system: COLO 205
KM12 = test system: KM12
SF-295 = test system: SF-295
SK-MEL-2 = test system: SK-MEL-2

Cc1ccc(C2=Nc3c(N)nc(N)nc3NC(c3ccccc3)C2)cc1 (centres undefined) was tested. Which GI50 (786-0) did it give?
Its GI50 is 12 µM (inactive).

And the GI50 (A498)?
The GI50 was 11.4 µM (inactive).

And the GI50 (A549)?
The GI50 was 10.9 µM (inactive).

And the GI50 (ACHN)?
The GI50 was 15.1 µM (inactive).

What about the GI50 (BT-549) of the same compound?
The GI50 was 9.46 µM (inactive).

And the GI50 (CAKI-1)?
Its GI50 is 10.5 µM (inactive).

What about the GI50 (CCRF-CEM) of the same compound?
Its GI50 is 7.41 µM (inactive).

What about the GI50 (DU-145) of the same compound?
The GI50 was 14.8 µM (inactive).

And the GI50 (EKVX)?
The GI50 was 13.5 µM (inactive).

What about the GI50 (HCC 2998) of the same compound?
The GI50 was 7.41 µM (inactive).

And the GI50 (HCT-116)?
The GI50 was 5.53 µM (inactive).

What about the GI50 (HCT-15) of the same compound?
The GI50 was 4.92 µM.

And the GI50 (HL-60)?
The GI50 was 3.08 µM (inactive).

What about the GI50 (HOP-62) of the same compound?
Its GI50 is 12.5 µM (inactive).

And the GI50 (HOP-92)?
Its GI50 is 10.3 µM (inactive).

And the GI50 (HT-29)?
Its GI50 is 3.99 µM (inactive).

What about the GI50 (Hs-578T) of the same compound?
Its GI50 is 13 µM (inactive).

What about the GI50 (IGROV-1) of the same compound?
The GI50 was 7.16 µM (inactive).

What about the GI50 (K562) of the same compound?
Its GI50 is 4.06 µM (inactive).

What about the GI50 (LOX IMVI) of the same compound?
Its GI50 is 11 µM (inactive).

And the GI50 (M14)?
The GI50 was 8.26 µM (inactive).

What about the GI50 (MCF7) of the same compound?
Its GI50 is 7.69 µM (inactive).

What about the GI50 (MDA-MB-231) of the same compound?
The GI50 was 7.4 µM (inactive).

And the GI50 (MDA-MB-435)?
Its GI50 is 2.24 µM (inactive).

And the GI50 (MDA-N)?
Its GI50 is 2.22 µM (inactive).

And the GI50 (MOLT-4)?
Its GI50 is 5.14 µM (inactive).

What about the GI50 (Malme-3M) of the same compound?
The GI50 was 10.9 µM (inactive).

What about the GI50 (NCI-H226) of the same compound?
Its GI50 is 14.3 µM (inactive).

What about the GI50 (NCI-H23) of the same compound?
Its GI50 is 11.3 µM (inactive).

And the GI50 (NCI-H460)?
The GI50 was 12.4 µM (inactive).

What about the GI50 (NCI-H522) of the same compound?
The GI50 was 3.65 µM (inactive).

What about the GI50 (NCI/ADR-RES) of the same compound?
Its GI50 is 4.34 µM (inactive).

What about the GI50 (OVCAR-3) of the same compound?
Its GI50 is 11.8 µM (inactive).

And the GI50 (OVCAR-4)?
The GI50 was 13.9 µM (inactive).

And the GI50 (OVCAR-5)?
Its GI50 is 16.4 µM (inactive).

And the GI50 (OVCAR-8)?
Its GI50 is 14 µM (inactive).

And the GI50 (PC-3)?
Its GI50 is 10.5 µM (inactive).

What about the GI50 (RPMI-8226) of the same compound?
Its GI50 is 7.01 µM (inactive).

What about the GI50 (RXF 393) of the same compound?
Its GI50 is 9.4 µM (inactive).

What about the GI50 (SF-268) of the same compound?
Its GI50 is 14.9 µM (inactive).

What about the GI50 (SF-539) of the same compound?
Its GI50 is 12.1 µM (inactive).

What about the GI50 (SK-MEL-28) of the same compound?
The GI50 was 12 µM (inactive).

What about the GI50 (SK-MEL-5) of the same compound?
The GI50 was 10 µM (inactive).

And the GI50 (SK-OV-3)?
The GI50 was 13.9 µM (inactive).

What about the GI50 (SN12C) of the same compound?
Its GI50 is 11.4 µM (inactive).

And the GI50 (SNB-19)?
The GI50 was 13.4 µM (inactive).

What about the GI50 (SNB-75) of the same compound?
The GI50 was 15.2 µM (inactive).

And the GI50 (SR)?
The GI50 was 6.92 µM (inactive).

What about the GI50 (SW-620) of the same compound?
The GI50 was 4.16 µM (inactive).

And the GI50 (T47D)?
The GI50 was 12.6 µM (inactive).

And the GI50 (TK-10)?
The GI50 was 14.4 µM (inactive).

And the GI50 (U-251)?
The GI50 was 12.1 µM (inactive).

And the GI50 (UACC-257)?
Its GI50 is 12.2 µM (inactive).

What about the GI50 (UACC-62) of the same compound?
Its GI50 is 10.3 µM (inactive).

And the GI50 (UO-31)?
Its GI50 is 12.6 µM (inactive).

Which GI50 (786-0) does the source give for N=C1OC(CN2CCN(c3ccccc3)CC2)CN1C(=S)Nc1ccccc1 (centres undefined) here?
Its GI50 is > 100 µM (inactive).

And the GI50 (A498)?
The GI50 was 89.9 µM (inactive).

What about the GI50 (A549) of the same compound?
The GI50 was 94.8 µM (inactive).

What about the GI50 (ACHN) of the same compound?
The GI50 was 66.5 µM (inactive).

And the GI50 (BT-549)?
The GI50 was 62.2 µM (inactive).

What about the GI50 (CAKI-1) of the same compound?
The GI50 was 95.5 µM (inactive).

What about the GI50 (CCRF-CEM) of the same compound?
Its GI50 is 37.1 µM (inactive).

What about the GI50 (COLO 205) of the same compound?
The GI50 was > 100 µM (inactive).

What about the GI50 (DU-145) of the same compound?
Its GI50 is > 100 µM (inactive).

What about the GI50 (EKVX) of the same compound?
Its GI50 is 32.6 µM (inactive).

What about the GI50 (HCC 2998) of the same compound?
Its GI50 is > 100 µM (inactive).

And the GI50 (HCT-116)?
The GI50 was > 100 µM (inactive).

What about the GI50 (HCT-15) of the same compound?
The GI50 was 91 µM.

And the GI50 (HL-60)?
Its GI50 is 31 µM (inactive).

And the GI50 (HOP-62)?
The GI50 was 45.5 µM (inactive).

And the GI50 (HOP-92)?
Its GI50 is 21.9 µM (inactive).

What about the GI50 (HT-29) of the same compound?
The GI50 was 49.7 µM (inactive).

And the GI50 (Hs-578T)?
The GI50 was 13 µM (inactive).

What about the GI50 (IGROV-1) of the same compound?
Its GI50 is 92.7 µM (inactive).

And the GI50 (K562)?
The GI50 was 33.9 µM (inactive).

What about the GI50 (KM12) of the same compound?
The GI50 was 39.2 µM (inactive).

And the GI50 (LOX IMVI)?
Its GI50 is 25.3 µM (inactive).

And the GI50 (M14)?
The GI50 was 55 µM (inactive).

And the GI50 (MCF7)?
The GI50 was 37.2 µM (inactive).

And the GI50 (MDA-MB-231)?
The GI50 was > 100 µM (inactive).

What about the GI50 (MDA-MB-435) of the same compound?
Its GI50 is 76.6 µM (inactive).

And the GI50 (MDA-N)?
The GI50 was 84.9 µM (inactive).

And the GI50 (MOLT-4)?
The GI50 was 44.3 µM (inactive).

What about the GI50 (Malme-3M) of the same compound?
The GI50 was 38.9 µM (inactive).

What about the GI50 (NCI-H226) of the same compound?
The GI50 was 78.9 µM (inactive).

What about the GI50 (NCI-H23) of the same compound?
Its GI50 is 50.6 µM (inactive).

And the GI50 (NCI-H460)?
The GI50 was 63.1 µM (inactive).

And the GI50 (NCI-H522)?
Its GI50 is 28.9 µM (inactive).

What about the GI50 (NCI/ADR-RES) of the same compound?
The GI50 was 45.4 µM (inactive).

And the GI50 (OVCAR-3)?
The GI50 was 42.8 µM (inactive).

What about the GI50 (OVCAR-4) of the same compound?
Its GI50 is > 100 µM (inactive).

What about the GI50 (OVCAR-5) of the same compound?
Its GI50 is 97.5 µM (inactive).

And the GI50 (OVCAR-8)?
The GI50 was 99.3 µM (inactive).

And the GI50 (PC-3)?
Its GI50 is 65.3 µM (inactive).

What about the GI50 (RPMI-8226) of the same compound?
Its GI50 is 54 µM (inactive).

What about the GI50 (RXF 393) of the same compound?
The GI50 was 41.1 µM (inactive).

What about the GI50 (SF-268) of the same compound?
Its GI50 is 39.4 µM (inactive).

What about the GI50 (SF-295) of the same compound?
Its GI50 is 32.7 µM (inactive).

What about the GI50 (SF-539) of the same compound?
Its GI50 is 96.2 µM (inactive).

What about the GI50 (SK-MEL-28) of the same compound?
Its GI50 is 84.3 µM (inactive).

What about the GI50 (SK-MEL-2) of the same compound?
Its GI50 is 59.2 µM (inactive).

And the GI50 (SK-MEL-5)?
Its GI50 is 35.8 µM (inactive).

And the GI50 (SK-OV-3)?
The GI50 was > 100 µM (inactive).

What about the GI50 (SN12C) of the same compound?
Its GI50 is > 100 µM (inactive).

And the GI50 (SNB-19)?
Its GI50 is 96.4 µM (inactive).

What about the GI50 (SNB-75) of the same compound?
Its GI50 is 31 µM (inactive).

What about the GI50 (SR) of the same compound?
The GI50 was 29.8 µM (inactive).

What about the GI50 (SW-620) of the same compound?
The GI50 was > 100 µM (inactive).

What about the GI50 (T47D) of the same compound?
Its GI50 is 35.6 µM (inactive).

And the GI50 (TK-10)?
The GI50 was 43.5 µM (inactive).

What about the GI50 (U-251) of the same compound?
The GI50 was 78.7 µM (inactive).

What about the GI50 (UACC-257) of the same compound?
The GI50 was 56 µM (inactive).

And the GI50 (UACC-62)?
Its GI50 is 48.8 µM (inactive).

What about the GI50 (UO-31) of the same compound?
The GI50 was 37.2 µM (inactive).
